Format in all cases: cell-based
Test [1] has as its target T1, EGFR L858R-T790M (Homo sapiens, UniProt P00533, L858R/T790M).
T1 construct: NCI-H1975 (harboring EGFR heterozygous L858R-T790M mutations); host or cells: NCI-H1975
The test can be described thus: EGFR degradation, Total EGFR (L858R-specific) HTRF, NCI-H1975. As to conditions: Table 9A; NCI-H1975 cells, 6 hours, Total EGFR HTRF; read-out: H1975 EGFR DC50. An outline of the steps: (§1)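 FRET signal from HTRF kits measured phospho-EGFR at pY1068 or total EGFR after 6 h treatment at 37 °C. Compounds ran as 11-point half-log dilutions from 10 μM in duplicate, in cells in phenol red-free RPMI with 10% FBS. Concentrations giving 50% inhibition or degradation were reported as IC50 or DC50.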

The target of test [2] is T2, EGFR L858R-T790M-C797S (Homo sapiens, UniProt P00533, C797S/L858R/T790M).
T2 construct: generated using CRISPR technology to introduce the additional C797S mutation by Horizon Discovery; host or cells: NCI-H1975+CS (CRISPR knock-in of C797S)
The test can be described thus: EGFR degradation, Total EGFR (L858R-specific) HTRF, NCI-H1975+CS. As to conditions: H1975 + CS (L858R-T790M-C797S), 6 hours; read-out: tEGFR DC50. An outline of the steps:
as §1

Test [3] deals with T3, EGFR WT (Homo sapiens, UniProt P00533).
T3 construct: A431 (harboring EGFR wildtype) was purchased from ATCC; host or cells: A431
T3 sequence (P00533 25-1210): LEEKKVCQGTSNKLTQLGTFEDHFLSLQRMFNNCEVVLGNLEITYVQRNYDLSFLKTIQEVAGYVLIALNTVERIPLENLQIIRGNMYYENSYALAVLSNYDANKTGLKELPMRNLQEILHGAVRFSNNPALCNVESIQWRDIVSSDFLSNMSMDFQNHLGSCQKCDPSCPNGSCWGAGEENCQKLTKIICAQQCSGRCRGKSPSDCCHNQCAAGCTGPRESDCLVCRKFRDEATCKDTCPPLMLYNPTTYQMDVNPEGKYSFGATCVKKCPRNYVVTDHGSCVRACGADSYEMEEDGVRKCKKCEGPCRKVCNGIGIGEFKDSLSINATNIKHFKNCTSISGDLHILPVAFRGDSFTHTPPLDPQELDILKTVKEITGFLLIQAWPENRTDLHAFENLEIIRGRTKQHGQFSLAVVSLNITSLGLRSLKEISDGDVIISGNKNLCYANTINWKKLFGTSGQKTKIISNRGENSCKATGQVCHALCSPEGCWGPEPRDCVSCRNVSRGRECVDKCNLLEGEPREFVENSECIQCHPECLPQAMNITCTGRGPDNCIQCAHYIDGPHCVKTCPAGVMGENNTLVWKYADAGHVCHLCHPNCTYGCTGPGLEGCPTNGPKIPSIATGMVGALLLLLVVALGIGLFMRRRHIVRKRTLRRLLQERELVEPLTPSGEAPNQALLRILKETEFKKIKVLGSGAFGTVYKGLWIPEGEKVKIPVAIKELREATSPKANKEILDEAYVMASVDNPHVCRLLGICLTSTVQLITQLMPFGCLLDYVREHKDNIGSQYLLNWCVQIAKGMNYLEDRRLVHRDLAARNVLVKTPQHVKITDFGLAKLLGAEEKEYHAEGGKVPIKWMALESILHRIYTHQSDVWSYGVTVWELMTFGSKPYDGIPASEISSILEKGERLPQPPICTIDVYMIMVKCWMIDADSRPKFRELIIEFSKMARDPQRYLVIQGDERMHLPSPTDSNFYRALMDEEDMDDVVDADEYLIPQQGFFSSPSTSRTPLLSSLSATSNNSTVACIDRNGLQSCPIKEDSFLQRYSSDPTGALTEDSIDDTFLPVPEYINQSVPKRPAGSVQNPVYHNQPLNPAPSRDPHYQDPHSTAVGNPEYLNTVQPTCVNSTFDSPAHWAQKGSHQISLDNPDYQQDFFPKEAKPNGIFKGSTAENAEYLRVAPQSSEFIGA
The test can be described thus: EGFR degradation, Total EGFR (pan-EGFR) HTRF, A431. As to conditions: A431 (wild-type), 6 hours; read-out: tEGFR DC50. From the text: (§2) NCI-H1975 (harboring EGFR heterozygous L858R-T790M mutations) and NCI-H3255 (harboring EGFR heterozygous L858R mutation) were purchased from ATCC and NCI, respectively. NCI-H1975+CS (harboring EGFR heterozygous L858R-T790M-C797S mutations) was generated using CRISPR technology to introduce the additional C797S mutation by Horizon Discovery. A431 (harboring EGFR wildtype) was purchased from ATCC. RPMI 1640 no-phenol red medium and fetal bovine serum (FBS) were purchased from Gibco (Grand Island, NY, USA). Cell culture flasks and 384-well microplates were acquired from VWR (Radnor, PA, USA). Phosphorylated (pY1068) EGFR and Total EGFR (using L858R-specific detection antibody and pan-EGFR antibody for EGFR mutant cell lines and EGFR wild-type cell lines, respectively) HTRF assay kits were purchased from Cisbio (Bedford, MA, USA).
(§3) Degradation of EGFR protein containing L858R mutation or wild-type was determined based on quantification of FRET signal using a Total EGFR (L858R-specific or pan-EGFR detecting) HTRF assay kit. Phospho-EGFR (pEGFR) inhibition was determined based on quantification of FRET signal using a pY1068 EGFR HTRF assay kit. In separate assay plates, test compounds were added to the 384-well plate from a top concentration of 10 μM with 11 points, half log titration in duplicates. For each assay, 12.5 uL of cells suspended in assay media (RPMI 1640 no-phenol red medium+10% FBS) at cell densities indicated for each cell line in Table 8 below were dispensed using a multi-channel pipette to 384-well low volume white HTRF microplates containing a duplicate concentration range of test compounds and DMSO controls. The plates were kept at 37° C. with 5% CO2 for 6 hours and then incubated with either phospho EGFR or Total EGFR HTRF detection antibodies according to the cell line and EGFR mutant being assayed. Cells treated in the absence of the test compound were the negative control. Positive control was set by wells containing all reagents but no cells. FRET signal was acquired on EnVision™ Multilabel Reader (PerkinElmer, Santa Clara, CA, USA). Compound concentration that achieves 50% degradation and inhibition was reported as DC50 and IC50, respectively.
(In general: In TR-FRET formats the signal depends on donor and acceptor labels being close together.)

In test [4] the target is T4, pY1068 EGFR L858R-T790M (Homo sapiens, UniProt P00533, L858R/T790M).
T4 construct: NCI-H1975 (harboring EGFR heterozygous L858R-T790M mutations); host or cells: NCI-H1975
T4 sequence (P00533 25-1210 T790M/L858R): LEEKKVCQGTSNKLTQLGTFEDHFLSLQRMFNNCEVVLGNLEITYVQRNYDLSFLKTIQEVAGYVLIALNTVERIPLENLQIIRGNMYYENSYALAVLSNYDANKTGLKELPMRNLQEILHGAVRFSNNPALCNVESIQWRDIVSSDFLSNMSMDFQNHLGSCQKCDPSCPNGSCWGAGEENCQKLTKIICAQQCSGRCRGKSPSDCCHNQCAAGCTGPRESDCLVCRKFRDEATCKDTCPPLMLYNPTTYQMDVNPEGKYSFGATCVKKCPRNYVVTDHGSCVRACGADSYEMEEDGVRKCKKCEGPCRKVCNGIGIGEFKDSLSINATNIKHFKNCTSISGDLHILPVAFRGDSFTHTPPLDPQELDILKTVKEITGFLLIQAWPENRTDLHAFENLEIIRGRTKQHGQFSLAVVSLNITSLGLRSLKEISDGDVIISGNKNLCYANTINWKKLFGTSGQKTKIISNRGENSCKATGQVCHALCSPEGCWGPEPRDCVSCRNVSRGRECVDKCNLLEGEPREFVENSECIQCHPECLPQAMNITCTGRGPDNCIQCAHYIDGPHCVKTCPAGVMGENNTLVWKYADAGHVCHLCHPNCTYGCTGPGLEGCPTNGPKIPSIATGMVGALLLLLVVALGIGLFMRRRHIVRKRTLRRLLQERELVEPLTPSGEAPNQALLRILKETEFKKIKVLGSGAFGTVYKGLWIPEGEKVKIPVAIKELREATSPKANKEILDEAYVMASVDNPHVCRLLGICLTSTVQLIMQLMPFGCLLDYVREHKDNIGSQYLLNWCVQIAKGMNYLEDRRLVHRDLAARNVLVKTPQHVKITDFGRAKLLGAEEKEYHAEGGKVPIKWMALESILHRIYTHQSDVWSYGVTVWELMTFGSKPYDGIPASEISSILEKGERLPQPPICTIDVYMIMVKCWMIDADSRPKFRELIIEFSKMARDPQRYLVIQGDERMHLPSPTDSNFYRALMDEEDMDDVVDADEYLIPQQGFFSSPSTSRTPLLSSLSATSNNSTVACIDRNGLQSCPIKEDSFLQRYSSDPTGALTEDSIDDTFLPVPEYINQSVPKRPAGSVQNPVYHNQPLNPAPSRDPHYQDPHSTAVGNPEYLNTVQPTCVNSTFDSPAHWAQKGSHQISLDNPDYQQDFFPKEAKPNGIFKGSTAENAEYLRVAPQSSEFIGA
In words: Phospho-EGFR (pY1068) inhibition HTRF, NCI-H1975. The note with it: 6 hours, read-out: pEGFR IC50.
From the text: as §2, §3

Test [5] deals with T5, pY1068 EGFR L858R (Homo sapiens, UniProt P00533, L858R).
T5 construct: NCI-H3255 (harboring EGFR heterozygous L858R mutation); host or cells: NCI-H3255
In words: Phospho-EGFR (pY1068) inhibition HTRF, NCI-H3255. As to conditions: 6 hours, read-out: pEGFR IC50.
From the text: as §2, §3

The target of test [6] is T6, pY1068 EGFR L858R-T790M-C797S (Homo sapiens, UniProt P00533, C797S/L858R/T790M).
T6 construct: generated using CRISPR technology to introduce the additional C797S mutation by Horizon Discovery; host or cells: NCI-H1975+CS (CRISPR knock-in of C797S)
The test can be described thus: Phospho-EGFR (pY1068) inhibition HTRF, NCI-H1975+CS. The note with it: 6 hours, read-out: pEGFR IC50.
From the text: as §2, §3

Test [7] has as its system BaF3 cells expressing EGFR L858R. The test can be described thus: Ba/F3 EGFR cell viability (CellTiter-Glo), L858R. As to conditions: Mus musculus, read-out: CTGlo (GI50). From the text: (§4) RPMI 1640 media, cell culture flasks, and 384-well microplates were purchased from VWR (Radnor, PA, USA). Fetal bovine serum (FBS) was purchased from Life Technologies (Carlsbad, CA, USA) and CellTiter-Glo® was purchased from Promega (Madison, WI, USA). The Ba/F3 parental cell line was purchased from CrownBio (Santa Clara, CA). BaF3 cell lines ectopically expressing the EGFR mutations L858R, L858R-T790M, L858R-C797S, and L858R-T790M-C797S were purchased from CrownBio and EGFR mutations L858R-L718Q, L858R-T790M-L718Q, L858R-L792H, and L858R-T790M-L792H, were purchased from Signosis (Santa Clara, CA).
(§5) Cell viability was assessed based on the quantification of ATP using the CellTiter-Glo® assay (Promega, Madison, WI, USA). To determine the effect of compounds on cell viability, all Ba/F3 cell lines were plated at a cell density of 2000 cells/well in 384-well plates using RPMI 1640+10% FBS and treated with compounds of interest using a 10-point half-log dilution series in duplicate for 72 hours, with the highest dose set at […]. CellTiter-Glo® reagent was then added and luminescence signals were measured using an EnVision™ Multimode plate reader (Perkin Elmer, Santa Clara, CA). For data normalization, cells untreated with the test compounds at Time=72 hours were set to 100% (equivalent to maximal cell growth after 72 hours); cells untreated with the test compounds at Time=0 hours were set to 0% (equivalent to cytostasis); and media-only wells were set to −100% (equivalent to complete cytotoxicity). % Viability was determined by normalizing the signal with positive and DMSO treated negative controls on the same microtiter plate. The half-maximal inhibition of cell growth (GI50) is computed from where the fitted curve crosses 50% while the half-maximal lethal dose (LD50) is computed from where the fitted curve crosses −50%.
(ATP-based viability assays read luminescence as a measure of living cells.)

Test [8] has as its system BaF3 cells expressing EGFR L858R-T790M. In words: Ba/F3 EGFR cell viability (CellTiter-Glo), L858R-T790M. As to conditions: Mus musculus, read-out: CTGlo (GI50).
From the text: as §4, §5

Test [9] deals with BaF3 cells expressing EGFR L858R-C797S. In words: Ba/F3 EGFR cell viability (CellTiter-Glo), L858R-C797S. As to conditions: Mus musculus, read-out: CTGlo (GI50).
From the text: as §4, §5

Test [10] has as its system BaF3 cells expressing EGFR L858R-T790M-C797S. The test can be described thus: Ba/F3 EGFR cell viability (CellTiter-Glo), L858R-T790M-C797S. As to conditions: Mus musculus, read-out: CTGlo (GI50).
From the text: as §4, §5

In test [11] the test system is BaF3 cells expressing wild-type EGFR. In words: Ba/F3 EGFR cell viability (CellTiter-Glo), wild-type EGFR. As to conditions: Mus musculus, Ba/F3 WT EGFR, read-out: CTGlo (GI50).
Test [12] deals with EGFR L858R (Homo sapiens, UniProt P00533, L858R). The test can be described thus: EGFR degradation, Total EGFR (L858R-specific) HTRF, NCI-H3255. As to conditions: H3255 (L858R), 6 hours; read-out: tEGFR DC50. On the set-up: NCI-H3255 (harboring EGFR heterozygous L858R mutation); host or cells: NCI-H3255. The gist of the method:
as §1

T1 sequence (P00533 25-1210 T790M/L858R): as above
Sequence of EGFR L858R (P00533 25-1210 L858R): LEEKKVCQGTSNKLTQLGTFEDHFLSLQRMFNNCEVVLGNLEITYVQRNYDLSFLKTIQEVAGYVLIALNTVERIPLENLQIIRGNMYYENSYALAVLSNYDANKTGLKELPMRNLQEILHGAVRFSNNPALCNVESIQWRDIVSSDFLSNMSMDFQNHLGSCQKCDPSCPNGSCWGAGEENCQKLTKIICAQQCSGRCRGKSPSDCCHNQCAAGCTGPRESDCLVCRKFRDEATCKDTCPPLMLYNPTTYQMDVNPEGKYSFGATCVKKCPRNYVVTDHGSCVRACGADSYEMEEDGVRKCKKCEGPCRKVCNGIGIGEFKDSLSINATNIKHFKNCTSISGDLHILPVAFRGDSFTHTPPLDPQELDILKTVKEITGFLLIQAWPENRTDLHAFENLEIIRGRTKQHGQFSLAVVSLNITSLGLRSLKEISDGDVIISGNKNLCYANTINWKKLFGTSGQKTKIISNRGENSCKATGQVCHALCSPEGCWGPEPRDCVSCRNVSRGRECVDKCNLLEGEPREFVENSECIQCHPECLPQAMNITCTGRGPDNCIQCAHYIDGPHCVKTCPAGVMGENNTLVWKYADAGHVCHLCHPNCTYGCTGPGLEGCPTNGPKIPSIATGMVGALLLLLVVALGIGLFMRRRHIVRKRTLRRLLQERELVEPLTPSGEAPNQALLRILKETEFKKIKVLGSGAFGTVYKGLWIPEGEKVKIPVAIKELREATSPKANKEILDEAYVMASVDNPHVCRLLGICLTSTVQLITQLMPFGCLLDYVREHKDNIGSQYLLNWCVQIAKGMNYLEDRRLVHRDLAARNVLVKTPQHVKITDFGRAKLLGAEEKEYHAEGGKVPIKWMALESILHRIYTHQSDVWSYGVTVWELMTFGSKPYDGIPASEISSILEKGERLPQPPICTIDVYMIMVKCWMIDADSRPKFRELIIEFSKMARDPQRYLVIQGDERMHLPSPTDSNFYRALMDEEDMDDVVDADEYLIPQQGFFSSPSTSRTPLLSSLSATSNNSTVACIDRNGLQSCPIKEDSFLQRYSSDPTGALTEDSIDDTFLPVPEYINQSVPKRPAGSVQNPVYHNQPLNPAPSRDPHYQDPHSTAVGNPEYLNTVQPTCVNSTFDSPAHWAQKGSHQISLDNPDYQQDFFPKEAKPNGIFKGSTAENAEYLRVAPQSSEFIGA

For the compound `Cn1nc(N2CCC(=O)NC2=O)c2ccc(C3CCN(CC(=O)N4CC5(C4)CN(c4ccc(-c6cc(F)c7c(c6)C(=O)N(C(C(=O)Nc6nccs6)c6ncn8c6CCC8)C7)cc4)C5)CC3(F)F)cc21` (stereo not drawn) [Compound 3, 2-(6,7-dihydro-5H-pyrrolo[1,2-c]imidazol-1-yl)-2-[6-[4-[2-[2-[4-[3-(2,4-dioxohexahydropyrimidin-1-yl)-1-methyl-indazol-6-yl]-3,3-difluoro-1-piperidyl]acetyl]-2,6-diazaspiro[3.3]heptan-6-yl]phenyl]-4-fluoro-1-oxo-isoindolin-2-yl]-N-thiazol-2-yl-acetamide], the DC50 in [1] was less than 50 nM; in test [2], 33 nM; in [3], greater than 10000 nM; in [12], 8 nM. For the same compound, the IC50 in test [4] came out at 11 nM; in test [5] it was 8 nM; in test [6], 19 nM. Moreover, the GI50 came to 3 nM in test [7]; 9 nM in test [8]; 2 nM in [9]; 3 nM in test [10]; 248 nM in test [11].

Usually DC50 stands for the concentration at which degradation of the target reaches its halfway point. In general, IC50 refers to the concentration that inhibits the measured activity by half. A word on the GI50: it is the concentration that inhibits growth by half.
